Where a name gives a salt, the structure may show the parent alone.

For one test, the target named is human recombinant CTSC (Homo sapiens (Human), UniProt P53634). Kind of test: CTSC inhibition assay (in vitro), fluorescent substrate GF-AFC. Particulars: 30 μmol/L GF-AFC, pH 5.0, 25° C. It is filed as biochemical. On the procedure: 1. CTSC Inhibition Assay (In Vitro)
A test specimen was evaluated by a CTSC inhibition assay using a fluorescent substrate GF-AFC (Gly-Phe-7-Amino-4-trifluoromethylcoumarin, MP Biomedical, 03AFC03325). Since the GF-AFC is converted by CTSC to aminotrifluoromethylcoumarin having a specific fluorescence wavelength and the produced amount is proportional to CTSC activity, quantitative analysis was performed by measuring a fluorescence intensity with a plate reader. CTSC inhibition assay for each compound was performed using a polystyrene-made non-adhesive surface-treated black 384 well plate under the following conditions.
A human recombinant CTSC (R&D systems, 1071-CY) was dissolved in a CTSC active cocktail (20 ng/mL of human recombinant cathepsin L (R&D systems, 952-CY, 25 mmol/L MES/NaOH (pH: 6.0), 5 mmol/L dithiothreitol (DTT)) so as to be 100 ng/mL and incubated at 18° C. for 30 minutes. The solution was diluted with a CTSC assay buffer (50 mmol/L MES/NaOH (pH: 5.0), 50 mmol/L NaCl, 0.001% Triton X-100, mmol/L DTT) so as to be 2 ng/mL in a case of performing CTSC inhibition assay.
The test specimen was dissolved in dimethylsulfoxide (DMSO) at 10 mmol/L to prepare a stock solution. In a case where a solution in which the stock solution was diluted 15-fold with DMSO was used as the maximum evaluation concentration (0.667 mmol/L), 5-fold dilution was repeated in DMSO from the solution to prepare a serially diluted solution. 248.8 μL of the CTSC assay buffer was added to 1.12 μL of the serially diluted sample prepared in the DMSO to prepare a solution of a CTSC inhibition assay compound.
The final composition of the CTSC inhibition assay mixture was 0.66 ng/mL activated CTSC, 50 mmol/L MES/NaOH (pH: 5.0), 50 mmol/L NaCl, 0.001% Triton X-100, 5 mmol/L DTT, 30 μmol/L GF-AFC, and 0.15% DMSO, and the procedure was as follows. That is, 4 μL of the compound solution and 4 μL of the 2 ng/mL activated CTSC solution were mixed with each other in a 384 well plate and incubated at 25° C. for 30 minutes. Thereafter, 4 μL of the GF-AFC solution dissolved in the CTSC assay buffer was added to the mixture so as to be 90 μmol/L. After mixing to be uniform, a fluorescence emission intensity at 505 nm in a case of being excited at 390 nm after incubating at 25° C. for 1 hour was measured with a plate reader. A 4-parameter regression analysis was performed with GraphPad Prism (manufactured by GraphPad Software) from a plot of the fluorescence intensity at 505 nm and the sample concentration, and an IC50 value was calculated.
Results of test compounds of Formula (I) are shown in Table 1 as IC50 (nM) values for which 50% inhibition concentration is calculated based on CTSC inhibition (%). In the table, Ex indicates an example number.

The next test concerns the target CTSC in U937 cells (Homo sapiens (Human), UniProt P53634). Kind of test: Intracellular CTSC inhibition assay (in vitro), LLOMe-induced cell death in U937 cells. It is filed as cell-based. To be noted: 3 hours culture, CellTiter-Glo. On the procedure: 2. Intracellular CTSC Inhibition Assay (In Vitro)
A test specimen was evaluated by a degree of cell death in a case where a substrate LLOMe (L-Leucyl-L-Leucine methyl ester, hydrobromide salt, Sigma, 555045152) was added to U937 cells. The LLOMe is taken up into the cells by endocytosis and cleaved by CTSC. A product thereof induces lysosomal damage in cells and causes cell death in leukocytes and the like. Therefore, since the degree of cell death correlates with an amount of degradation of LLOMe, that is, with CTSC activity, by quantitatively analyzing the cell death, CTSC inhibitory activity of the test specimen in the cell was determined. CTSC inhibition assay was performed using a polystyrene-made white 384 well plate.
As the test specimen, a stock solution dissolved in DMSO was prepared so as to be 0.2 mmol/L, and in a case where a solution in which the stock solution was diluted 50-fold with a RPMI-1640 medium including 10% FBS was used as the maximum evaluation concentration (4000 nmol/L), a serially diluted solution was prepared by diluting the solution 3-fold with the medium. Thereafter, a 4-fold concentrated test specimen solution with the target final concentration was prepared.
U937 cells were cultured in a RPMI-1640 medium including 10% FBS, and diluted to prepare 90,000 cells/mL of cell suspension on the day of assay. 10 μL of the cell suspension was seeded per well. Next, 10 μL of the test specimen solution having a concentration 4 times the target final concentration was added thereto, and the mixture was allowed to stand for 30 minutes. Thereafter, 20 μL of a 300 μmol/L LLOMe solution dissolved in a RPMI-1640 medium including 10% FBS was added thereto, and the cells were cultured for 3 hours. After completion of the culture, 40 μL of CellTiter-Glo (registered trademark) reagent (Promega, G7570) was added to each well and mixed. After 15 minutes, 20 μL of the reaction solution in each well was transferred to a white 384 well plate, and a chemiluminescence intensity was measured with a plate reader. A 4-parameter regression analysis was performed with GraphPad Prism (manufactured by GraphPad Software) from a plot of the luminescence intensity and the sample concentration, and an IC50 value was calculated.
Results of test compounds of Formula (1) are shown in Table 2 as IC50 (nM) values for which 50% inhibition concentration is calculated based on CTSC inhibition (%). In the table, Ex indicates an example number.

Chain of human recombinant CTSC (P53634 25-134): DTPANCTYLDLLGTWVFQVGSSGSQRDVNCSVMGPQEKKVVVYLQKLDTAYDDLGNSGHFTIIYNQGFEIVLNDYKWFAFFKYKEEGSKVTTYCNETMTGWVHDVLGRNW
Chain of human recombinant CTSC (P53634 231-394): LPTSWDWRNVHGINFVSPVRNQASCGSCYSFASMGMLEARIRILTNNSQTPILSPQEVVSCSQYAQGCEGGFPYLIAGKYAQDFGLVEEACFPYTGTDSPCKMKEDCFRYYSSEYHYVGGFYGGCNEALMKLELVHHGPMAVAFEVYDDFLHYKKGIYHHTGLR
Chain of human recombinant CTSC (P53634 395-463): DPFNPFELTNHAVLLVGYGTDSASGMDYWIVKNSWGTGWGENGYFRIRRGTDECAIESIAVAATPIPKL
Chain of CTSC in U937 cells (P53634 25-463): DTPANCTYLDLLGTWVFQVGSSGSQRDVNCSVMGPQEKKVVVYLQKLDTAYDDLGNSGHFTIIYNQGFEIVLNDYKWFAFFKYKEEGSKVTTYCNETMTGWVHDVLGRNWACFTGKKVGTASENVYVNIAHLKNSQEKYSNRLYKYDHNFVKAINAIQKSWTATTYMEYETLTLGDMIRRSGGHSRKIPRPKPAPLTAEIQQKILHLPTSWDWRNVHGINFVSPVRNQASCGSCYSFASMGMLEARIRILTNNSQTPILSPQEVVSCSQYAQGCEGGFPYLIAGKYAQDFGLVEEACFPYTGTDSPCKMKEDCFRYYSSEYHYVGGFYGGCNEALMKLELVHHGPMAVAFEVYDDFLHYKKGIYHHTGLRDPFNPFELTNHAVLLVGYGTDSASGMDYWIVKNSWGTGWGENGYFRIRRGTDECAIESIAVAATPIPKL

Regarding `CC(C)C1(c2nc(C3CC(F)(F)C3)no2)CCN(C(=O)[C@@H]2C[C@@H](O)C3(CCC3)CN2)CC1` [Example 1, (4-(3-(3,3-Difluorocyclobutyl)-1,2,4-oxadiazol-5-yl)-4-isopropylpiperidin-1-yl)((7S,9R)-9-hydroxy-6-azaspiro[3.5]nonan-7-yl)methanone], the IC50 amounted to 1.63 nM on human recombinant CTSC and 0.49 nM against CTSC in U937 cells.
As to `O=C([C@@H]1C[C@@H](O)C2(CCC2)CN1)N1CCC(c2nc(C3CC(F)(F)C3)no2)(C(F)(F)F)CC1` [Example 2, (4-(3-(3,3-Difluorocyclobutyl)-1,2,4-oxadiazol-5-yl)-4-(trifluoromethyl)piperidin-1-yl)((7S,9R)-9-hydroxy-6-azaspiro[3.5]nonan-7-yl)methanone], the IC50 came out at 2.36 nM at human recombinant CTSC and 0.89 nM against CTSC in U937 cells.
In the same order, the values of `O=C([C@@H]1C[C@@H](O)C2(CCC2)CN1)N1CCC(c2noc(C3CC(F)(F)C3)n2)(C(F)(F)F)CC1` [Example 3, (4-(5-(3,3-Difluorocyclobutyl)-1,2,4-oxadiazol-3-yl)-4-(trifluoromethyl)piperidin-1-yl)((7S,9R)-9-hydroxy-6-azaspiro[3.5]nonan-7-yl)methanone] are 1.52 nM and 0.49 nM.
For `O=C([C@@H]1CC[C@@]2(CCO2)CN1)N1CCC(c2nc(C3CCC(F)(F)CC3)cs2)(C(F)(F)F)CC1` [Example 4] the same measures were 4.85 nM and 5.64 nM.
In the same order, the values of `CC(C)C1(c2noc(C3CC(F)(F)C3)n2)CCN(C(=O)[C@@H]2C[C@@H](O)C3(CCC3)CN2)CC1` [Example 5] are 1.08 nM and 1.01 nM.
With `CC(C)C1(c2noc(C3CCC(F)(F)CC3)n2)CN(C(=O)[C@@H]2C[C@@H](O)C3(CCC3)CN2)C1` [Example 6], the IC50 is 1.19 nM on human recombinant CTSC and 1.06 nM against CTSC in U937 cells.
In the case of `CN(CC1CCC(F)(F)CC1)C(=O)C1(C(F)(F)F)CCN(C(=O)[C@@H]2CC[C@@]3(CCO3)CN2)CC1` [Example 7], the IC50 at human recombinant CTSC was found to be 10.4 nM; against CTSC in U937 cells, 23.6 nM.
For `CN(CC1CCC(F)(F)CC1)C(=O)C1(C(F)(F)F)CCN(C(=O)[C@@H]2C[C@@H](O)C3(CCC3)CN2)CC1` [Example 8] the same measures were 1.6 nM and 1.62 nM.
On to `CC(C)C1(c2nc(C3CC(F)(F)C3)no2)CCN(C(=O)[C@@H]2CC[C@@]3(CCO3)CN2)CC1` [Example 9], for which the IC50 is 5.09 nM at human recombinant CTSC and 11.4 nM against CTSC in U937 cells.
For `O=C([C@@H]1CC[C@@]2(CCO2)CN1)N1CCC(c2nc(C3CC(F)(F)C3)no2)(C(F)(F)F)CC1` [Example 10] the same measures were 39.3 nM and 162 nM.
In the same order, the values of `O=C([C@@H]1CC[C@@]2(CCO2)CN1)N1CCC(c2nc(C3CCC(F)(F)CC3)no2)(C(F)(F)F)CC1` [Example 11] are 7.73 nM and 11.5 nM.
Turning to `CC(C)C1(c2nc(C3CCC(F)(F)CC3)no2)CCN(C(=O)[C@@H]2C[C@@H](O)C3(CCC3)CN2)CC1` [Example 12], the figures for the IC50 at human recombinant CTSC and on CTSC in U937 cells were 1.03 nM and 0.34 nM, respectively.
In the same order, the values of `O=C([C@@H]1C[C@@H](O)C2(CCC2)CN1)N1CCC(c2nc(C3CCC(F)(F)CC3)no2)(C(F)(F)F)CC1` [Example 13] are 1.7 nM and 0.19 nM.
In the same order, the values of `CC(C)C1(c2nnc(C3CCC(F)(F)CC3)o2)CCN(C(=O)[C@@H]2C[C@@H](O)C3(CCC3)CN2)CC1` [Example 14] are 1.35 nM and 4 nM.
`CC(C)C1(C(=O)NC2CCC(F)(F)CC2)CN(C(=O)[C@@H]2C[C@@H](O)C3(CCC3)CN2)C1` [Example 15]: the IC50 on human recombinant CTSC was determined as 1.9 nM; at CTSC in U937 cells it was 791 nM.
For `CC(C)C1(c2nnc(C3CCC(F)(F)CC3)o2)CN(C(=O)[C@@H]2C[C@@H](O)C3(CCC3)CN2)C1` [Example 16, (3-(5-(4,4-difluorocyclohexyl)-1,3,4-oxadiazol-2-yl)-3-isopropylazetidine-1-yl)((7S,9R)-9-hydroxy-6-azaspiro[3.5]nonan-7-yl)methanone trifluoroacetate], the IC50 at human recombinant CTSC worked out at 3.17 nM; on CTSC in U937 cells, 19.2 nM.
As to `CC(C)C1(C(=O)N(C)CC2CCC(F)(F)CC2)CN(C(=O)[C@@H]2C[C@@H](O)C3(CCC3)CN2)C1` [Example 17], the IC50 at human recombinant CTSC stood at 1.01 nM; against CTSC in U937 cells, 21.4 nM.
On to `CC(C)C1(c2nc(C3CC(F)(F)C3)no2)CN(C(=O)[C@@H]2C[C@@H](O)C3(CCC3)CN2)C1` [Example 18], for which the IC50 worked out at 3.12 nM at human recombinant CTSC and 2.33 nM against CTSC in U937 cells.
In the same order, the values of `CC(C)C1(c2nc(C3CCC(F)(F)CC3)no2)CN(C(=O)[C@@H]2C[C@@H](O)C3(CCC3)CN2)C1` [Example 19] are 1.23 nM and 0.98 nM.
In the same order, the values of `CC(C)C1(C(=O)NCC2CCC(F)(F)CC2)CN(C(=O)[C@@H]2C[C@@H](O)C3(CCC3)CN2)C1` [Example 20] are 0.83 nM and 227 nM.
Take `CC(C)C1(c2nc(C3CCC(F)(F)CC3)no2)CN(C(=O)[C@@H]2CC[C@@]3(CCO3)CN2)C1` [Example 21]: the values for the IC50 on human recombinant CTSC and against CTSC in U937 cells were 2.51 nM and 4.78 nM, respectively.
As to `O=C([C@@H]1C[C@@H](O)C2(CCC2)CN1)N1CCC(C(=O)NCC2CCC(F)(F)CC2)(C(F)(F)F)CC1` [Example 22], the figures for the IC50 at human recombinant CTSC and at CTSC in U937 cells were 1.03 nM and 20.8 nM, respectively.
In the case of `CC(C)C1(c2noc(C3CCC(F)(F)CC3)n2)CCN(C(=O)[C@H]2NC3CCC2CC3)CC1` [Example 23], the results for the IC50 on human recombinant CTSC and against CTSC in U937 cells were 88.8 nM and 60.9 nM, respectively.
With `CC(C)C1(c2noc(C3CCC(F)(F)CC3)n2)CCN(C(=O)[C@@H]2C[C@H](F)CN2)CC1` [Example 24], the IC50 at human recombinant CTSC was 151 nM; against CTSC in U937 cells, greater than 1000 nM.
For the compound `CC(C)C1(c2noc(C3CCC(F)(F)CC3)n2)CCN(C(=O)[C@@H]2C[C@H](O)CN2)CC1` [Example 25], the IC50 at human recombinant CTSC and against CTSC in U937 cells was greater than 200 nM in each case.
In the case of `CC(C)C1(c2noc(C3CCC(F)(F)CC3)n2)CCN(C(=O)[C@H]2N[C@@H]3CC[C@H]2C3)CC1` [Example 26], the IC50 was greater than 200 nM on human recombinant CTSC and 474 nM against CTSC in U937 cells.
For `CC(C)C1(C(=O)NCC2CCC(F)(F)CC2)CN(C(=O)[C@@H]2CC[C@@]3(CCO3)CN2)C1` [Example 27] the same measures were 0.24 nM and 133 nM.
As for `CS[C@@H]1CN[C@H](C(=O)N2CCC(c3noc(C4CCC(F)(F)CC4)n3)(C(C)C)CC2)C1` [Example 28], the IC50 on human recombinant CTSC is 254 nM; at CTSC in U937 cells, 596 nM.

Values taken from patent US12522593B2, “Azacycloalkyl carbonyl cyclic amine compound” (Alivexis, Inc., priority 2022, dated 2026).
